US5194645A, “Trans-Pt (IV) compounds” (Johnson Matthey Public Limited Company, priority 1991, dated 1993)

Legend:
CHI ®/CHI = experiment: Resistance factor CHI ®/CHI; type: cell-based, human; conditions: ratio of IC50 resistant to nonresistant line, ovarian
Procedure: (§1) Additional in vitro biological testing was conducted using cell lines derived from human carcinomas and maintained at the Institute of Cancer Research, Sutton, England (see C A Hills & colleagues, Br J Cancer 59, 527-34 (1989)). Monolayer cells were trypsinized and seeded in 96-well microtiter plates at a density of 1×10^4 cells/well in 200 μl of growth medium. Cells were incubated overnight and test compounds were added to triplicate wells at various concentrations for a total of 48 to 96 hours. For toxicity analysis after drug exposure, the cells were fixed with trichloroacetic acid and stained for cellular protein content by incubation for 30 minutes with 0.4% (wt/vol) sulforodamine B (SRB) dissolved in 1% acetic acid. The unbound dye was removed by 1% acetic acid washes, and the bound dye was extracted with 10 mM Tris buffer. The amount of dye in solution was quantified by absorbance at 564 nm.
(§2) In the Tables A and B below, all the cells are ovarian cancer cells with the exception of GCT27^R /GCT27 which are testicular. Table A gives IC50 values in μM; Table B gives Resistance Factors as a ratio of IC50 for a cell line bred to be resistant to cisplatin against IC50 for the nonresistant cell line.

41M = experiment: In vitro cytotoxicity (SRB), 41M; type: cell-based, human; conditions: ovarian cancer, 48 to 96 hours
Procedure: as §1, §2

HX62 = experiment: In vitro cytotoxicity (SRB), HX62; type: cell-based, human; conditions: HX62, ovarian cancer, 48 to 96 hours
Procedure: as §1, §2

41M ® = experiment: In vitro cytotoxicity (SRB), 41M ®; type: cell-based, human; conditions: 41M ® (cisplatin resistant), ovarian cancer, 48 to 96 hours
Procedure: as §1, §2

A2780 = experiment: In vitro cytotoxicity (SRB), A2780; type: cell-based, human; conditions: A2780, ovarian cancer, 48 to 96 hours
Procedure: as §1, §2

SKOV-3 = experiment: In vitro cytotoxicity (SRB), SKOV-3; type: cell-based, human; conditions: SKOV-3, ovarian cancer, 48 to 96 hours
Procedure: as §1, §2

A2780 ®/A2780 = experiment: Resistance factor A2780 ®/A2780; type: cell-based, human; conditions: ratio of IC50 resistant to nonresistant line, ovarian
Procedure: as §1, §2

CHI ® = experiment: In vitro cytotoxicity (SRB), CHI ®; type: cell-based, human; conditions: CHI ® (cisplatin resistant), ovarian cancer, 48 to 96 hours
Procedure: as §1, §2

41M ®/41M = experiment: Resistance factor 41M ®/41M; type: cell-based, human; conditions: ratio of IC50 resistant to nonresistant line, ovarian
Procedure: as §1, §2

CHI = experiment: In vitro cytotoxicity (SRB), CHI; type: cell-based, human; conditions: ovarian cancer, 48 to 96 hours
Procedure: as §1, §2

A2780 ® = experiment: In vitro cytotoxicity (SRB), A2780 ®; type: cell-based, human; conditions: A2780 ® (cisplatin resistant), ovarian cancer, 48 to 96 hours
Procedure: as §1, §2

GCT27 ®/GCT27 = experiment: Resistance factor GCT27 ®/GCT27; type: cell-based, human; conditions: ratio of IC50 resistant to nonresistant line, testicular
Procedure: as §1, §2

Adj/PC6 = experiment: In vivo Adj/PC6 tumour test in mice (LD50, ED90, therapeutic index)
Procedure: The Adj/PC6 testing was carried out as described by P M Goddard et al presented in Sixth NCI-EORTC Symposium on New Drugs in Cancer Therapy 1989, which is a development of the basic method described by T A Connors et al, Chem Biol Interact 5, 415(1972). The in vivo L1210 tests were conducted according to the NCI protocol, Cancer Chemotherapy Reports, Part 3, vol 2, (Sept 1972) except that the animals used were DBA/2 mice and that dosing was carried out on days 1, 5 and 9. The animals were sacrificed when moribund. The compounds were administered parenterally (ip).
In the Adj/PC6 testing, LD50 and ED90 values in mg/kg body weight were determined in the conventional manner. The therapeutic index (TI) was calculated as the ratio of LD50 to ED90, and the results are shown below.
Additional tests were carried out in vivo using the compound of Example 2, against sensitive Adj/PC6 tumour cell lines, and against tumour cell lines resistant to various platinum anti-tumour agents, and a TI (Therapeutic Index) calculated, as described above.

PXN/94 = experiment: In vitro cytotoxicity (SRB), PXN/94; type: cell-based, human; conditions: PXN/94, ovarian cancer, 48 to 96 hours
Procedure: as §1, §2

OVCAR-3 [1] = experiment: In vivo OVCAR-3 ovarian carcinoma xenograft; set-up: species or system mice; conditions: tumour volume vs control
OVCAR-3 [2] = experiment: In vivo OVCAR-3 ovarian carcinoma xenograft; set-up: species or system mice; conditions: delay in doubling of tumour volume vs control
Procedure: The "growth delay" was also measured which represents the delay in achieving a doubling of the tumour volume for the treated group compared to the control group.

Adj/PC6/tetraplatin res = experiment: In vivo Adj/PC6 tetraplatin-resistant tumour test in mice
Procedure: (§3) The animals were sacrificed when moribund. The compounds were administered parenterally (ip).

Adj/PC6/iproplatin res = experiment: In vivo Adj/PC6 iproplatin-resistant tumour test in mice; set-up: key to ED90: --: indicates 90% inhibition not achieved for doses up to LD50
Procedure: as §3

Adj/PC6/cisplatin res = experiment: In vivo Adj/PC6 cisplatin-resistant tumour test in mice; set-up: key to ED90: --: indicates 90% inhibition not achieved for doses up to LD50
Procedure: as §3

[3] = Adj/PC6, comparison with cis-isomer

Compound | Resistance Factor CHI ®/CHI (CHI ®/CHI) | IC50 (41M) [µM] | IC50 (HX62) [µM] | IC50 (41M ®) [µM] | IC50 (A2780) [µM] | IC50 (SKOV-3) [µM] | Resistance Factor A2780 ®/A2780 (A2780 ®/A2780) | IC50 (CHI ®) [µM] | Resistance Factor 41M ®/41M (41M ®/41M) | IC50 (CHI) [µM] | IC50 (A2780 ®) [µM] | ED90 (Adj/PC6; Adj/PC6 testing, mice, ip) [mg/kg body weight] | LD50 (Adj/PC6; Adj/PC6 testing, mice, ip) [mg/kg body weight] | TI (therapeutic index, ratio of LD50 to ED90) (Adj/PC6; Adj/PC6 testing, mice, ip) | IC50 (PXN/94) [µM] | further results
[NH2][Pt]([OH])([OH])([Cl])([Cl])[NH]Cc1ccccc1 [B, t[PtCl2 (OH2)NH3 (PhCH2 NH2)]] | 1.7 | 1.3 | 10.2 | 1.35 | 1.06 | 8.2 | 4.0 | 1.95 | 1.0 | 1.12 | 4.2 |  |  |  |  | 
N.N.[Cl][Pt][Cl] [Cisplatin, cis-[PtCl2 (NH3)2], reference compound] | 6.4 |  |  |  |  |  | 15.7 |  | 4.7 |  |  |  |  |  |  | Resistance Factor GCT27 ®/GCT27 (GCT27 ®/GCT27): 6.2
[NH2][Pt]([OH])([OH])([Cl])([Cl])[NH]C1CCCC1 [EX 1, trans-[PtCl2 (OH)2 (NH3)(c-C5 H9 NH2)]] | 1.7 | 1.1 | 10.2 | 1.3 | 0.95 | 7 | 5.5 | 1.9 | 1.2 | 1.15 | 5.2 |  |  |  |  | 
CC(C)[NH][Pt]([NH2])([OH])([OH])([Cl])[Cl] [EX 3, trans-[PtCl2 (OH)2 (NH3)((CH3)2 CHNH2)]] | 2.3 | 3.2 | 14 | 4.6 |  | 9.2 |  | 5.5 | 1.4 | 2.4 |  | 10.5 | 18 | 1.7 | 8.3 | 
CC(C)(C)[NH][Pt]([NH2])([OH])([OH])([Cl])[Cl] [EX 4, trans-[PtCl2 (OH)2 NH3 (t-C4 H9 NH2)]] | 2.2 | 1.1 | 1.8 | 0.9 |  | 4.7 |  | 1.6 | 0.8 | 0.74 |  | 4.7 | 35 | 7.4 | 3 | 
C[NH][Pt]([NH2])([OH])([OH])([Cl])[Cl] [EX 6, trans-[PtCl2 (OH)2 NH3 (MeNH2)]] | 2.4 | 5.4 | 110 | 33 | 6.2 | 72 | 10.3 | 30.5 | 6.1 | 12.5 | 64 |  |  |  |  | 
[NH2][Pt]([OH])([OH])([Cl])([Cl])[N]1CCOCC1 [EX 7, trans-[PtCl2 (OH)2 NH3 (morpholine)]] | 1.6 | 26 | 100 | 54 | 10.9 | 47 |  | 28.3 | 2.1 | 17.3 | 47 | 94 | 82 | < 1 | 50 | 
CC[N](CC)[Pt]([NH2])([OH])([OH])([Cl])[Cl] [EX 10, t-[PtCl2 (OH)2 NH3 (Et2 NH)]] |  | 1.8 | 3.2 | 0.8 | 1.9 | 12.1 |  | 4.6 |  | 3.3 | 11.6 |  |  |  |  | 
C1CN2CCC1CC2.[NH2][Pt]([OH])([OH])([Cl])[Cl] [EX 11, t-[PtCl2 (OH)2 NH3 (quinuclidine)]] |  | 14.4 | 40 | 9.5 | 3.2 | 27 |  | 14.3 |  | 10.2 | 16 |  |  |  |  | 
ctc[PtCl2 (OH) NH3(c-C6 H11 NH2)] [Cis-isomer, reference compound] |  |  |  |  |  |  |  |  |  |  |  |  |  |  |  | ED90 (Adj/PC6; [3]): 1.4 mg/kg; LD50 (Adj/PC6; [3]): 17.5 mg/kg; TI (Therapeutic Index) (Adj/PC6; [3]): 13; T/C (day 28) (OVCAR-3 [1]; 2 mg/kg): 0.636; T/C (day 28) (OVCAR-3 [1]; 4 mg/kg): 0.427; T/C (day 28) (OVCAR-3 [1]; 8 mg/kg): 0.599; Growth Delay (OVCAR-3 [2]; 2 mg/kg): 4.3 days; Growth Delay (OVCAR-3 [2]; 4 mg/kg): 15.2 days; Growth Delay (OVCAR-3 [2]; 8 mg/kg): 5.5 days; ED90 (Adj/PC6/tetraplatin res): 12 mg/kg; LD50 (Adj/PC6/tetraplatin res): > 12.5 mg/kg; TI (Therapeutic Index) (Adj/PC6/tetraplatin res): > 1; ED90 (Adj/PC6/iproplatin res): --; LD50 (Adj/PC6/iproplatin res): 8.8 mg/kg; ED90 (Adj/PC6/cisplatin res): --; LD50 (Adj/PC6/cisplatin res): 8.8 mg/kg
t-[PtCl2 (OH)2 NH3 (exo-2-aminonorbornane)] | 1.2 | 1.4 | 5.6 | 1.47 |  | 4.4 |  | 1.7 | 1.0 | 1.4 |  | < 6.25 | 15.5 | > 2.5 | 3.2 | 
trans-[PtCl2 (OH)2 NH3 (C10 H21 NH2)] [EX 8] |  | 12 | 23 | 5.3 | 2.9 | 25 |  | 14.6 |  | 14 | 14.1 |  |  |  |  | 
